Results as given in US20250122567A1, “Methods of Identifying and Treating Subjects having Inflammatory Subphenotypes of Asthma” (National Jewish Health, priority 2015, published 2025).

Tests used:
[1] = test system: HRV-16; test: HRV-16 infection of ALI differentiated airway epithelial cells treated with IL-13; assay type: cell-based, human rhinovirus-16; settings: IL-13 10 ng/ml for final 10 days of differentiation, BECs and NECs, vs vehicle
[2] = test system: DPP4; test: IL-13 treatment of ALI differentiated bronchial epithelial cells, DPP4 expression; assay type: cell-based; settings: IL-13 10 ng/ml, 24 hours
Experimental: FIGS. 12A and 12B show pairs of Air-liquid interface (ALI) differentiated bronchial epithelial cells (BEC) from 5 donors that were treated for 24 hours with IL-13 cytokine (10 ng/ml) and vehicle control. (FIG. 12A) RNA was extracted from all control and IL-13 treated ALI membranes. RNA was used in 5′ nuclease qPCR assays to determine DPP4 and housekeeping gene expression. Normalized DPP4 expression for the control and IL-13 treated cultures of a subject are connected by a line. Well-differential nasal airway epithelial cultures were generated and tested for a single donor denoted by red points. (FIG. 12B) Western blot of cell lysates for DPP4 in control and IL-13 treated BECs from all five donors.

Substance: IL-13: Th2 cytokine used to treat airway epithelial cell cultures (10 ng/ml)
- HRV-16 infection (mRNA) of ALI differentiated airway epithelial cells [1]: decreases HRV-16 infection
- DPP4 gene expression in airway epithelial cells ([2]; ALI differentiated BEC from 5 donors, qPCR, vs vehicle control): strongly induced
- DPP4 protein expression in airway epithelial cells ([2]; BEC cell lysates from five donors, Western blot, vs control): strongly induced
